Results on seven compounds are retold here after PubChem BioAssay (NCI).

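Five concentrations, 48 hours, 96-well plates. At the TGI there is no net growth.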

For one experiment, the system named is SNB-19 CNS. The experiment can be described thus: growth of human tumour cells (NCI), 48 h.
On to `CCCC(O)C(NC(=O)CCl)C(=O)O` (configuration not stated), for which the TGI was > 100 µM.

With `COc1cc(/C=C/C(=O)O)ccc1C(=O)OCc1ccccc1`, the TGI is > 100 µM.

`O=C(CC(=O)c1ccccc1)CC(O)(c1ccccc1)c1ccccc1`: the TGI stood at 35.3 µM.

On to `COc1cccc2c1C(=O)c1c(O)c3c(c(O)c1C2=O)C[C@@](O)(C(=O)CO)C[C@@H]3OC1CC(N)C(OC)C(C)O1` (some centres not stated), for which the TGI is > 15.8 µM.

`COc1cc2c(cc1O)C1C(O)C(O)C=C3CCN(C2)C31` (configuration not stated) had a TGI of 10.1 µM.

`CC(C)=CCc1c(O)ccc2ccc(=O)oc12`: the TGI is > 100 µM.

Another experiment concerns ACHN renal. Nature of the experiment: growth of human tumour cells (NCI), 48 h.
Take `CC#C[P+](c1ccccc1)(c1ccccc1)c1ccccc1`: the TGI was 21.8 µM.

The compound `O=C(CC(=O)c1ccccc1)CC(O)(c1ccccc1)c1ccccc1` showed a TGI of 24.5 µM.

Consider `COc1cccc2c1C(=O)c1c(O)c3c(c(O)c1C2=O)C[C@@](O)(C(=O)CO)C[C@@H]3OC1CC(N)C(OC)C(C)O1` (some centres not stated), for which the TGI was 0.765 µM.

Compound `COc1cc2c(cc1O)C1C(O)C(O)C=C3CCN(C2)C31` (configuration not stated) yielded a TGI of 7.87 µM.

Another experiment has as its system HCT-15 colon. The experiment can be described thus: growth of human tumour cells (NCI), 48 h.
`CC#C[P+](c1ccccc1)(c1ccccc1)c1ccccc1` showed a TGI of 35.8 µM.

Turning to `CCCC(O)C(NC(=O)CCl)C(=O)O` (configuration not stated), the TGI is > 100 µM.

As for `COc1cc(/C=C/C(=O)O)ccc1C(=O)OCc1ccccc1`, the TGI is > 100 µM.

In the case of `O=C(CC(=O)c1ccccc1)CC(O)(c1ccccc1)c1ccccc1`, the TGI was 23 µM.

As for `COc1cccc2c1C(=O)c1c(O)c3c(c(O)c1C2=O)C[C@@](O)(C(=O)CO)C[C@@H]3OC1CC(N)C(OC)C(C)O1` (some centres not stated), the TGI is 13.2 µM.

The compound `COc1cc2c(cc1O)C1C(O)C(O)C=C3CCN(C2)C31` (configuration not stated) displayed a TGI of 25.2 µM.

Take `CC(C)=CCc1c(O)ccc2ccc(=O)oc12`: the TGI is > 100 µM.

In the next experiment the test system is UO-31 renal. The experiment can be described thus: growth of human tumour cells (NCI), 48 h.
Compound `CC#C[P+](c1ccccc1)(c1ccccc1)c1ccccc1` came in with a TGI of 76.4 µM.

`CCCC(O)C(NC(=O)CCl)C(=O)O` (configuration not stated): the TGI is > 100 µM.

For `COc1cc(/C=C/C(=O)O)ccc1C(=O)OCc1ccccc1`, the TGI was > 100 µM.

For `O=C(CC(=O)c1ccccc1)CC(O)(c1ccccc1)c1ccccc1`, the TGI was found to be 18.4 µM.

The compound `COc1cccc2c1C(=O)c1c(O)c3c(c(O)c1C2=O)C[C@@](O)(C(=O)CO)C[C@@H]3OC1CC(N)C(OC)C(C)O1` (some centres not stated) returned a TGI of 1.41 µM.

Compound `COc1cc2c(cc1O)C1C(O)C(O)C=C3CCN(C2)C31` (configuration not stated) yielded a TGI of 9.04 µM.

On to `CC(C)=CCc1c(O)ccc2ccc(=O)oc12`, for which the TGI was > 95.1 µM.

A further experiment relates to HOP-62 NSCLC. The experiment can be described thus: growth of human tumour cells (NCI), 48 h.
`CC#C[P+](c1ccccc1)(c1ccccc1)c1ccccc1`: the TGI was determined as 17.4 µM.

Turning to `CCCC(O)C(NC(=O)CCl)C(=O)O` (configuration not stated), the TGI was > 100 µM.

As to `COc1cc(/C=C/C(=O)O)ccc1C(=O)OCc1ccccc1`, the TGI is > 100 µM.

In turn, `O=C(CC(=O)c1ccccc1)CC(O)(c1ccccc1)c1ccccc1` returned a TGI of 12 µM.

For `COc1cccc2c1C(=O)c1c(O)c3c(c(O)c1C2=O)C[C@@](O)(C(=O)CO)C[C@@H]3OC1CC(N)C(OC)C(C)O1` (some centres not stated), the TGI came to 0.354 µM.

`COc1cc2c(cc1O)C1C(O)C(O)C=C3CCN(C2)C31` (configuration not stated) had a TGI of 10.9 µM.

A further experiment concerns SNB-78 CNS. Nature of the experiment: growth of human tumour cells (NCI), 48 h.
The compound `CC#C[P+](c1ccccc1)(c1ccccc1)c1ccccc1` had a TGI of 22.9 µM.

Turning to `CCCC(O)C(NC(=O)CCl)C(=O)O` (configuration not stated), the TGI is > 100 µM.

Turning to `COc1cc(/C=C/C(=O)O)ccc1C(=O)OCc1ccccc1`, the TGI is > 100 µM.

`O=C(CC(=O)c1ccccc1)CC(O)(c1ccccc1)c1ccccc1` returned a TGI of 81 µM.

In turn, `COc1cccc2c1C(=O)c1c(O)c3c(c(O)c1C2=O)C[C@@](O)(C(=O)CO)C[C@@H]3OC1CC(N)C(OC)C(C)O1` (some centres not stated) yielded a TGI of 16.9 µM.

As for `COc1cc2c(cc1O)C1C(O)C(O)C=C3CCN(C2)C31` (configuration not stated), the TGI worked out at 9.27 µM.

As to `CC(C)=CCc1c(O)ccc2ccc(=O)oc12`, the TGI is > 100 µM.

The next experiment concerns HOP-92 NSCLC. Nature of the experiment: growth of human tumour cells (NCI), 48 h.
Take `CC#C[P+](c1ccccc1)(c1ccccc1)c1ccccc1`: the TGI came out at 5.42 µM.

As for `CCCC(O)C(NC(=O)CCl)C(=O)O` (configuration not stated), the TGI was > 100 µM.

On to `COc1cc(/C=C/C(=O)O)ccc1C(=O)OCc1ccccc1`, for which the TGI was > 100 µM.

In the case of `O=C(CC(=O)c1ccccc1)CC(O)(c1ccccc1)c1ccccc1`, the TGI was determined as 19.5 µM.

Compound `COc1cccc2c1C(=O)c1c(O)c3c(c(O)c1C2=O)C[C@@](O)(C(=O)CO)C[C@@H]3OC1CC(N)C(OC)C(C)O1` (some centres not stated) registered a TGI of 0.631 µM.

For the compound `COc1cc2c(cc1O)C1C(O)C(O)C=C3CCN(C2)C31` (configuration not stated), the TGI came to 5.92 µM.

`CC(C)=CCc1c(O)ccc2ccc(=O)oc12` yielded a TGI of 94.6 µM.

The test system of the next experiment is MCF7 breast. The experiment can be described thus: growth of human tumour cells (NCI), 48 h.
Regarding `CCCC(O)C(NC(=O)CCl)C(=O)O` (configuration not stated), the TGI is > 100 µM.

On to `COc1cc(/C=C/C(=O)O)ccc1C(=O)OCc1ccccc1`, for which the TGI is > 100 µM.

`COc1cccc2c1C(=O)c1c(O)c3c(c(O)c1C2=O)C[C@@](O)(C(=O)CO)C[C@@H]3OC1CC(N)C(OC)C(C)O1` (some centres not stated) had a TGI of 0.41 µM.

As to `CC(C)=CCc1c(O)ccc2ccc(=O)oc12`, the TGI was > 100 µM.

Another experiment concerns MDA-MB-231 breast. The experiment can be described thus: growth of human tumour cells (NCI), 48 h.
As for `COc1cccc2c1C(=O)c1c(O)c3c(c(O)c1C2=O)C[C@@](O)(C(=O)CO)C[C@@H]3OC1CC(N)C(OC)C(C)O1` (some centres not stated), the TGI amounted to 7.01 µM.

For a further experiment, the system named is MDA-N. Nature of the experiment: growth of human tumour cells (NCI), 48 h.
Regarding `COc1cccc2c1C(=O)c1c(O)c3c(c(O)c1C2=O)C[C@@](O)(C(=O)CO)C[C@@H]3OC1CC(N)C(OC)C(C)O1` (some centres not stated), the TGI came out at 36.2 µM.

For a further experiment, the system named is SK-MEL-28 melanoma. Nature of the experiment: growth of human tumour cells (NCI), 48 h.
As to `CC#C[P+](c1ccccc1)(c1ccccc1)c1ccccc1`, the TGI amounted to 25 µM.

Consider `CCCC(O)C(NC(=O)CCl)C(=O)O` (configuration not stated), for which the TGI was > 100 µM.

For the compound `COc1cc(/C=C/C(=O)O)ccc1C(=O)OCc1ccccc1`, the TGI is > 100 µM.

`O=C(CC(=O)c1ccccc1)CC(O)(c1ccccc1)c1ccccc1`: the TGI came out at 31.9 µM.

`COc1cccc2c1C(=O)c1c(O)c3c(c(O)c1C2=O)C[C@@](O)(C(=O)CO)C[C@@H]3OC1CC(N)C(OC)C(C)O1` (some centres not stated) yielded a TGI of 1.9 µM.

`COc1cc2c(cc1O)C1C(O)C(O)C=C3CCN(C2)C31` (configuration not stated) displayed a TGI of 13.9 µM.

In the case of `CC(C)=CCc1c(O)ccc2ccc(=O)oc12`, the TGI is > 100 µM.
